This is an account of results in article PMC6480602, “Design, Synthesis, and Evaluation of Monoamine Oxidase A Inhibitors–Indocyanine Dyes Conjugates as Targeted Antitumor Agents” (Molecules, 2019).

For one data set, the system named is PC-3 cells. Put plainly: MTT cytotoxicity assay against PC-3 cells. Conditions: for IC50: 96 h exposure, read-out: IC50 (μM), anti-proliferative activity against PC-3 cells. It counts as cell-based, human. The method, then: The antitumor activities of G1–G13 were evaluated by MTT (3-(4,5-dimethylthiazol-2-yl)-2,5-diphenyltetrazolium bromide) assay using a human PC-3 cell line.
The in vitro cytotoxicity activity of G1–G13 were measured by the colorimetric MTT assay. Briefly, PC-3 cells were incubated in 96-well plates at a density of 3 × 10^3 cells/well for 24 h. Then, the cells were exposed to various concentrations of tested compounds, INH and DOX, respectively for 96 h. After incubation, 10 μL of MTT (5 mg/mL) solution was added and the plates were incubated for 4 h at 37 °C. Next, the medium was replaced with 200 μL of DMSO to dissolve the formed formazan crystals. The absorbance was measured at 570 nm on a microplate reader (Synergy-HT, BioTek Instruments, Winooski, VT, USA).

Data set [1] concerns the target T1, Monoamine oxidase A (MAOA) (Homo sapiens, UniProt P21397).
T1 construct: the prostate cancer cell line LNCaP expressed a relatively high level of MAOA; endogenous in cells; host or cells: LNCaP cells (Cell Bank of the Chinese Academy of Sciences, Shanghai)
T1 sequence (P21397 1-527): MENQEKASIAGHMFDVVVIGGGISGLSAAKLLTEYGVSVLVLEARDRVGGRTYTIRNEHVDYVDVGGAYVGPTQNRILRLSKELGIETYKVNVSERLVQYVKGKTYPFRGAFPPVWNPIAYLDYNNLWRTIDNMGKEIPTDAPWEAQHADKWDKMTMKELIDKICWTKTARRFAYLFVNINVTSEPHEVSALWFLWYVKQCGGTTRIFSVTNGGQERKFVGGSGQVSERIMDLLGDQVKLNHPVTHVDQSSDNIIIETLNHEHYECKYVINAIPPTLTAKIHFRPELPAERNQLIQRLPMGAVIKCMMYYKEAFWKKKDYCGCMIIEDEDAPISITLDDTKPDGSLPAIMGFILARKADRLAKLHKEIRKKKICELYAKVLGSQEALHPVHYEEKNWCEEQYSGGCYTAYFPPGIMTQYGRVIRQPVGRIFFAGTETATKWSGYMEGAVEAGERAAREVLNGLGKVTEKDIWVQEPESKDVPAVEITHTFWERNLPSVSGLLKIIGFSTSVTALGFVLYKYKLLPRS
Description: MAOA inhibition activity assay in LNCaP cells (Cell MAOA Assay Kit). It counts as cell-based. Here is the method: Because the prostate cancer cell line LNCaP expressed a relatively high level of MAOA [17, 40], we tested the inhibitory effect of compounds G10, G11, and G12 on MAOA using LNCaP cells (Table 2).
In a 10-mm dish, 6 × 10^5 LNCaP cells were plated in medium supplemented with 10% FBS. […] The reaction products were extracted and MAOA activities were measured as described in the introduction for the Cell MAOA Assay Kit (Shanghai Chengong Biotechnology, CHN, Lot No: 1-201838-10). The MAOA activity was assessed based on the substrate p-tyramine level after treatment with MAOB inhibitor pargyline.

Where [2] appears, read: LNCaP cells, 48 h treatment, substrate p-tyramine, with MAOB inhibitor pargyline, read-out: IC50 (nM), MAOA inhibitory activity in LNCaP cells.

Entries after “also recorded” stand apart in the source; their conditions may differ. Counter-ions that a name gives are not always drawn. Like-named read-outs stand apart in the source and are kept apart here.

As to “2-(7-(5-methoxyl-1-(5-carboxypentyl)-1,3-dihydro-5-ethyl-3-methyl-2H-indol-2-ylidene)-1,3,5-heptatrien-1-yl)-5-methoxyl-1-(6-(2-isonicotinoylhydrazinyl)-6-oxohexyl)-5-ethyl-3-methyl-3H-indol-1-ium bromide [Compound G6]”, the IC50 in the data set on PC-3 cells is 37.1 µM.

Regarding `COc1ccc2c(c1)C(C)(C)C(=CC=C1CCCC(C=CC3=[N+](CCCCCC(=O)NNC(=O)c4ccncc4)c4ccc(OC)cc4C3(C)C)=C1Cl)N2CCCCCC(=O)O` [Compound G1, 2-(2-(3-(2-(5-Methoxyl-1-(5-carboxypentyl)-3,3-dimethyl-indol-2-ylidene)ethylidene)-2-chloro-1-cyclohexen-1-yl)vinyl)-5-methoxyl-1-(6-(2-isonicotinoylhydrazinyl)-6-oxohexyl)-3,3-dimethyl-3H-indol-1-ium bromide], in the data set on PC-3 cells (Homo sapiens), the 50% inhibitory concentration (IC50) was found to be 18.4 µM.

As for `CC1(C)C(=CC=C2CCCC(C=CC3=[N+](CCCCCC(=O)NNC(=O)c4ccncc4)c4ccc(Br)cc4C3(C)C)=C2Cl)N(CCCCCC(=O)O)c2ccc(Br)cc21` [Compound G2, 2-(2-(3-(2-(5-Bromo-1-(5-carboxypentyl)-3,3-dimethyl-indol-2-ylidene)ethylidene)-2-chloro-1-cyclohexen-1-yl)vinyl)-5-bromo-1-(6-(2-isonicotinoylhydrazinyl)-6-oxohexyl)-3,3-dimethyl-3H-indol-1-ium bromide], in the data set on PC-3 cells (Homo sapiens), the half-maximal inhibitory concentration (IC50) was 75 µM.

For `CCC1(C)C(/C=C/C2=C(Cl)C(=C/C=C3/N(CCCCCC(=O)O)c4ccc(OC)cc4C3(C)CC)/CCC2)=[N+](CCCCCC(=O)NNC(=O)c2ccncc2)c2ccc(OC)cc21` (centres unmarked) [Compound G3, 2-(2-(3-(2-(5-Methoxyl-1-(5-carboxypentyl)-5-ethyl-3-methyl-indol-2-ylidene)ethylidene)-2-chloro-1-cyclohexen-1-yl)vinyl)-5-methoxyl-1-(6-(2-isonicotinoylhydrazinyl)-6-oxohexyl)-5-ethyl-3-methyl-3H-indol-1-ium bromide], in the data set on PC-3 cells (Homo sapiens), the IC50 was 13.3 µM.

Take `Cc1ccc2c(c1)C(C)(C)C(=CC=CC=CC=CC1=[N+](CCCCCC(=O)NNC(=O)c3ccncc3)c3ccc(C)cc3C1(C)C)N2CCCCCC(=O)O` [Compound G4, 2-(7-(1-(5-carboxypentyl)-1,3-dihydro-3,3,5-trimethyl-2H-indol-2-ylidene)-1,3,5-heptatrien-1-yl)-1-(6-(2-isonicotinoylhydrazinyl)-6-oxohexyl)-3,3,5-trimethyl-3H-indol-1-ium bromide]: the IC50 in the data set on PC-3 cells (Homo sapiens) was 46.7 µM.

As to `COc1ccc2c(c1)C(C)(C)C(=CC=CC=CC=CC1=[N+](CCCCCC(=O)NNC(=O)c3ccncc3)c3ccc(OC)cc3C1(C)C)N2CCCCCC(=O)O` [Compound G5, 2-(7-(5-methoxyl-1-(5-carboxypentyl)-1,3-dihydro-3,3-dimethyl-2H-indol-2-ylidene)-1,3,5-heptatrien-1-yl)-5-methoxyl-1-(6-(2-isonicotinoylhydrazinyl)-6-oxohexyl)-3,3-dimethyl-3H-indol-1-ium bromide], the IC50 with PC-3 cells (Homo sapiens) turned out to be 5.06 µM.

On to `COc1ccc2c(c1)C(C)(C)\C(=C/C=C/C=C/C=C/C1=[N+](CCCCCC(=O)NNC(=O)c3ccncc3)c3ccc(C)cc3C1(C)C)N2CCCCS(=O)(=O)[O-]` [Compound G7, 3H-Indolium,2-(7-(5-methoxy-1-(4-sulfonatobutyl)-3,3-dimethyl-2H-indolin-2-ylidene)-1,3,5-heptatrien-1-yl)-1-(6-(2-isonicotinoylhydrazinyl)-6-oxohexyl)-1,3-dihydro-3,3,5-trimethyl-, inner salt], for which, in the data set on PC-3 cells (Homo sapiens), the IC50 worked out at 28.6 µM.

In the case of `COc1ccc2c(c1)C(C)(C)C(/C=C/C=C/C=C/C=C1/N(CCCCS(=O)(=O)[O-])c3ccc(OC)cc3C1(C)C)=[N+]2CCCCCC(=O)NNC(=O)c1ccncc1` [Compound G8, 3H-Indolium,2-(7-(5-methoxy-1-(4-sulfonatobutyl)-3,3-dimethyl-2H-indolin-2-ylidene)-1,3,5-heptatrien-1-yl)-5-methoxy-1-(6-(2-isonicotinoylhydrazinyl)-6-oxohexyl)-1,3-dihydro-3,3-dimethyl-, inner salt], the concentration for half-maximal inhibition (IC50) in the data set on PC-3 cells (Homo sapiens) came to 102 µM.

On to `COc1ccc2c(c1)C(C)(C)\C(=C/C=C/C=C/C=C/C1=[N+](CCCCCC(=O)NNC(=O)c3ccncc3)c3ccccc3C1(C)C)N2CCCCS(=O)(=O)[O-]` [Compound G9, 3H-Indolium,2-(7-(5-methoxy-1-(4-sulfonatobutyl)-3,3-dimethyl-2H-indolin-2-ylidene)-1,3,5-heptatrien-1-yl)-1-(6-(2-isonicotinoylhydrazinyl)-6-oxohexyl)-1,3-dihydro-3,3-dimethyl-, inner salt], for which, in the data set on PC-3 cells (Homo sapiens), the half-maximal inhibitory concentration (IC50) was determined as 90.5 µM.

Turning to `CCCCN1/C(=C/C=C/C=C/C=C/C2=[N+](CCCC(=O)NNC(=O)c3ccncc3)c3ccc(C)cc3C2(C)C)C(C)(C)c2cc(OC)ccc21` [Compound G10, 2-(7-(5-Methoxy-1-butyl-3,3,5-trimethyl-2H-indolin-2-ylidene)-1,3,5-heptatrien-1-yl)-1-(6-(2-isonicotinoylhydrazinyl)-4-oxobutyl)-1,3-dihydro-3,3-dimethyl-3H-indolium bromide], in data set [1] (LNCaP cells), the “MAOA inhibitory activity (in words)” value is reported as “moderate MAOA inhibitory activities”. In addition, the IC50 in data set [1] (setting [2]) came to 221 nM; with PC-3 cells (Homo sapiens) it was 0.85 µM.

Take `CCCCN1/C(=C/C=C/C=C/C=C/C2=[N+](CCCCCC(=O)NNC(=O)c3ccncc3)c3ccc(C)cc3C2(C)C)C(C)(C)c2cc(OC)ccc21` [Compound G11]: the “MAOA inhibitory activity (in words)” value in data set [1] (LNCaP cells) is listed as “moderate MAOA inhibitory activities”. For the same compound, the figures for the concentration for half-maximal inhibition (IC50) (in data set [1] (setting [2]); in the data set with PC-3 cells (Homo sapiens)) were 469 nM and 0.4 µM, respectively.

As for `CCCCN1/C(=C/C=C/C=C/C=C/C2=[N+](CCCCCC(=O)NNC(=O)c3ccncc3)c3ccc(Br)cc3C2(C)C)C(C)(C)c2cc(OC)ccc21` [Compound G12], the “MAOA inhibitory activity (in words)” value in data set [1] (LNCaP cells) is “moderate MAOA inhibitory activities”. The values for the half-inhibitory concentration (IC50) (in data set [1] (setting [2]); in the data set on PC-3 cells (Homo sapiens)) were 661 nM and 1.55 µM, respectively.

For `CC1(C)C(/C=C/C=C/C=C/C=C2/N(CCCCCC(=O)NNC(=O)c3ccncc3)c3ccc4ccccc4c3C2(C)C)=[N+](CCCCS(=O)(=O)[O-])c2ccc3ccccc3c21` [Compound G13, 1H-Benz[e]indolium,2-(7-(3,3-dimethyl-1-(4-sulfonatobutyl)benz(e)indolin-2-ylidene)hepta-1,3,5-trien-1-yl)-1-(6-(2-isonicotinoylhydrazinyl)-6-oxohexyl)-1,3-dihydro-3,3-dimethyl-, inner salt], the IC50 in the data set on PC-3 cells (Homo sapiens) is 10.5 µM.

In the case of `COc1cccc2c1C(=O)c1c(O)c3c(c(O)c1C2=O)C[C@@](O)(C(=O)CO)C[C@@H]3O[C@H]1C[C@H](N)[C@H](O)[C@H](C)O1` [DOX, doxorubicin, reference compound], the IC50 in the data set on PC-3 cells (Homo sapiens) was found to be 0.21 µM.

With `NNC(=O)c1ccncc1` [INH, isoniazid, reference compound], the IC50 was greater than 1000 nM in data set [1] and greater than 200 µM in the data set on PC-3 cells (Homo sapiens). For the same compound, the “cytotoxicity / antitumor activity against PC-3 cells (in words)” value with PC-3 cells was “negligible cytotoxicity; also recorded: negligible in vitro antitumor activity”.
